Data from patent US20190211397A1, “INHIBITORS OF GPR132 FOR USE IN PREVENTING AND/OR TREATING CHEMOTHERAPY-INDUCED NEUROPATHIC PAIN” (Fraunhofer-Gesellschaft zur Foerderung der angewandten …, priority 2016, published 2019).
Entries after “also recorded” stand apart in the source; their conditions may differ.

Legend:
[1] = test system: TRPV1; assay: Calcium imaging of DRG neurons: TRPV1 sensitization (two capsaicin stimuli, Δratio); type: cell-based, mice
Experimental: (§1) DRG primary cultures were prepared as described previously (Brenneis et al., 2011 b). Briefly, twenty to thirty murine dorsal roots ganglia (DRGs) were dissected from spinal segments and transferred directly into ice-cold Hanks' balanced salt solution with CaCI2 and MgCI2 (lnvitrogen, Carlsbad, Calif., USA). The DRGs were than incubated with Neurobasal Medium (lnvitrogen, Carlsbad, Calif., USA) containing 500 U/ml collagenase (Sigma, Deisenhofen, Germany) and 2.5 U/ml dispase II (Roche, Mannheim, Germany) for 75 mins at 37° C. After removal of the collagenase/dispase-solution cells were washed three times with medium containing 10% FCS, penicillin/streptomycin/gentamycin (lnvitrogen, Carlsbad, Calif., USA) and incubated in 0.05% trypsin for 10 min at 37° C. After two washing steps, the cells were mechanically dissociated with a 1 ml pipette and plated on Poly-L-lysine (Sigma) coated coverslips. After incubation at 37° C. for 2 h, Neurobasal Medium containing glutamine (2 mm), penicillin (100 U/ml), streptomycin (100 μg/ml), B-27 and gentamicin (50 μg/ml) was added to the cells and incubated overnight. The neurons were used for Calcium imaging the next day.
Calcium-imaging experiments were performed with a Leica calcium-imaging setup, consisting of a Leica DMI 4000 b inverted microscope equipped with a DFC360 FX (CCD) camera, Fura-2 filters, and an N-Plan 10×/0.25 Ph1 objective (all from Leica), was used. Images were taken every 2 s and were processed with the LAS AF-software (Leica). For each experiment, an area with large cell numbers 24 h after preparation (see DRG primary cultures) was chosen and 40-110 cells were monitored simultaneously. Cells were loaded with 5 μM fura-2-AM-ester (Biotium), incubated for 45-60 min at 37° C. and washed with ringer solution (145 mM NaCI, 1.25 mM CaCl2, 1 mM MgCl2, 5 mM KCI, 10 mM D-glucose, and 10 mM HEPES, adjusted to pH 7.3). Baseline measurements were performed with ringer solution at a flow rate of 1-2 ml/min at room temperature. For the activation of TRPV1 we used a solution of 200 nM capsaicin (Sigma), for TRPA1 activation 50 μM allyl isothiocyanate (AITC, Fluka Analytic) and for TRPM8 100 μM L-menthol (Sigma) dissolved in ringer solution. For TRP-channel sensitization, cells were incubated for 2 mins with different concentrations (50 nM-1000 nM) of (±) 9-HODE (Cayman) or (±) 13-HODE (Cayman) before the second stimulus took place. For control stimulations, the corresponding volume of DMSO (Sigma) was mixed in ringer solution and applied with the same flow rate. 10 μM of the PKA inhibitor H89 (Tocris) or 1 μM of the PKC inhibitor GF1 09203X (Tocris) was co-incubated with fura-2 for 45 mins. As positive control for PKA activation 40 iJM 8-bromo-cAMP (Cayman) and for PKC activation 500 nM bradykinin (Cayman) was used. At the end of each measurement, 50 mM KCl was applied to identify neurons.

[2] = biological target: T1, TRPA1 (Mus musculus, UniProt Q8BLA8); assay: Calcium imaging of DRG neurons: TRPA1 sensitization (allyl isothiocyanate); type: cell-based, mice; conditions: activated with AITC 50 μM
T1 construct: endogenous in cells; host or cells: primary murine dorsal root ganglion (DRG) neurons
T1 sequence (Q8BLA8 whole entry): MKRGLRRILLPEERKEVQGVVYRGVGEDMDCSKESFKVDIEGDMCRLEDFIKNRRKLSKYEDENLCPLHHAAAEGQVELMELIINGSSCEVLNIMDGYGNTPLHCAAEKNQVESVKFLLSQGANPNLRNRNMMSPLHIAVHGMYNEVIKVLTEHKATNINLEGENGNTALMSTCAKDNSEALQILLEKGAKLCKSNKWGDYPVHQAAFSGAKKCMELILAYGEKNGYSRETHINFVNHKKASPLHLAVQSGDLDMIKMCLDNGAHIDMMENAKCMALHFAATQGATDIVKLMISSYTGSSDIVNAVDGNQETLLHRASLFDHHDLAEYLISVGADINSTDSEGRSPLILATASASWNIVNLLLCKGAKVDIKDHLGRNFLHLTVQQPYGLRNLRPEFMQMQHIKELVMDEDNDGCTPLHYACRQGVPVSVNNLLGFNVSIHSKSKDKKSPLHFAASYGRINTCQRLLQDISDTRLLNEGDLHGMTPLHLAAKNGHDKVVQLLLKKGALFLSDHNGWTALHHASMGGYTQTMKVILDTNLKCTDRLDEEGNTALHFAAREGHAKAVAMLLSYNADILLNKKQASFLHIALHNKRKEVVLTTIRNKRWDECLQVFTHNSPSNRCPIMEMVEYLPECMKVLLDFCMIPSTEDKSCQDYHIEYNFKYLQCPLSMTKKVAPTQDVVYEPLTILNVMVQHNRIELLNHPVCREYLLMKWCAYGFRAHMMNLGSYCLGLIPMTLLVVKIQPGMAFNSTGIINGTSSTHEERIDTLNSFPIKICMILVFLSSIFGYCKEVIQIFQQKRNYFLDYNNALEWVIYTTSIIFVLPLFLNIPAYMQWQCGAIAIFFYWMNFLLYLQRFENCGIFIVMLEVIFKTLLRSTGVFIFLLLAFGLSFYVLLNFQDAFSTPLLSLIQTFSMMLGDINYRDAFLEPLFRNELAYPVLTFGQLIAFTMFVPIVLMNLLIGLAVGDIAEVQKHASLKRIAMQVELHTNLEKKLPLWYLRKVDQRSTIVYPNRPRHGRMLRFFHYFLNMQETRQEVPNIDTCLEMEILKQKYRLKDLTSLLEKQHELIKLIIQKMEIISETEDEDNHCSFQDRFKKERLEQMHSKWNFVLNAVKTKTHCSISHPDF
Experimental: as §1, with “After incubation at 37° C. for 2 h, Neurobasal Medium containing glutamine (2 mm), penicillin (100 U/ml), streptomycin (100 μg/ml), B-27 and gentamicin (50 μg/ml) was added to the cells and incubated overnight. The neurons were used for Calcium imaging the next day.” left out
Calcium-imaging experiments were performed with a Leica calcium-imaging setup, consisting of a Leica DMI 4000 b inverted microscope equipped with a DFC360 FX (CCD) camera, Fura-2 filters, and an N-Plan 10×/0.25 Ph1 objective (all from Leica), was used. […] For each experiment, an area with large cell numbers 24 h after preparation (see DRG primary cultures) was chosen and 40-110 cells were monitored simultaneously. […]

[3] = test system: wild type, TRPV1-deficient and G2A-deficient mice; assay: Mechanical pain thresholds after intraplantar 9-HODE in oxaliplatin-treated mice; type: in vivo; conditions: for mechanical pain thresholds after intraplantar 9-HODE: day eight after oxaliplatin treatment; for mechanical paw withdrawal latencies after intraplantar 9-HODE: day 8 of oxaliplatin treatment
Excerpt: In all behavioral tests the experimenter was unaware of the treatment and the genotype of the mice. For all behavioral experiments we used only 6-12 weeks old C57BU6N mice purchased from commercial breeding companies (Charles River, Sulzfeld, Germany, Janvier, Le Geneset-Saint-lsle, FR). G2A and TRPV1 knockout strains were from Jackson laboratories. All experiments followed the ethics guidelines for investigations in conscious animals and the procedures were approved by the local Ethics Committee.
For the intra plantar (i.pl.) treatment with 9-HODE (1 0 (JM) (Cayman), a volume of 10 (JI was injected in the mid-plantar area of the hindpaw. For the intraperitoneal (i.p.) treatment, 100 (JI of oxaliplatin (3 mg/kg, Tocris) were injection into the peritoneum. The control group animals were treated with the corresponding volumes of 0.9% saline solution.
To determine the mechanical thresholds of mice, a Dynamic Plantar Aesthesiometer (Ugo Basile, Comerio, Italy) was used. Mice were put on an elevated grid in test cages at least 2 h before the measurement to allow accommodation. Then, baseline measurement was performed before the treatment with Oxaliplatin or 9-HODE. Therefore, a steel rod pushed against the plantar side of the hind paw with linear ascending force (0-5 g over 10 s, in 0.5 g/s intervals) until a fast withdraw of the paw was observed The time between the first contact of the steel rod and the paw withdraw was measured in seconds (paw withdraw latency) and a cut-off time of 20 s was set.

[4] = biological target: T2, G2A receptor (GPR132) (Homo sapiens, UniProt Q9UNW8); conditions: heterologous expression system; cited from earlier work
T2 sequence (Q9UNW8 1-380): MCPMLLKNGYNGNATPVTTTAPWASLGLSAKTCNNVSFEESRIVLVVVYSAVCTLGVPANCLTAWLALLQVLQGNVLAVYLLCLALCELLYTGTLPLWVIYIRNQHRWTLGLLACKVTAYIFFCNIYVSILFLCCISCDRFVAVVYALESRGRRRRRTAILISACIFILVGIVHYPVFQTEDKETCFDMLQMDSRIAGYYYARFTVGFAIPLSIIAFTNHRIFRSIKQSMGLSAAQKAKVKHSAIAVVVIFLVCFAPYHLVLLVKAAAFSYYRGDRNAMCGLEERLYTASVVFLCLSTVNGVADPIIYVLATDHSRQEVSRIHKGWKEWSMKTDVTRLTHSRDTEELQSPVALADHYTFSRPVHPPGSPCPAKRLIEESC

[5] = biological target: T2, G2A receptor (GPR132); assay: Calcium in HEK cells transfected with G2A (FURA-2); type: cell-based; set-up: expressed in transfected cells; conditions: HEK cells overexpressing G2A, 9-HODE 1 μM
[6] = biological target: T2, G2A receptor (GPR132); assay: Calcium flux in COS-1 cells cotransfected with aequorin and G2A; type: cell-based; set-up: expressed in transfected cells; conditions: COS-1 cells transfected with GPR132 and aequorin, 10 nM-10 μM
Experimental: For studies of heterologously expressed G2A receptor, COS-1 cells were seeded in white walls-clear bottom 96-well plates and transfected with a plasmid encoding a calcium-sensitive bioluminescent fusion protein between aequorin and GFP (Baubet et al., 2000) together with plasmid containing cDNA for G2A or control DNA (empty vector, mock) at a concentration of 50 ng/well by using FuGENE 6 reagent (Promega) following manufacturer's instructions. Forty eight hours later, cells were loaded with 5 μM coelenterazine h (Invitrogen) in HBSS containing 1.8 mM CaCl2 and 10 mM glucose for 2 h at 37° C. Measurements were performed by using a luminometric plate reader (Flexstation 3). The area under each calcium transient was calculated by using SoftMaxPro software and expressed as area under the curve (AUC).

## CCCCC/C=C\C=C\C(O)CCCCCCCC(=O)O (centres unmarked) [9-HODE, 9-hydroxy-10E,12Z-octadecadienoic acid]
[1]; DRG cultures of G2A-deficient mice, 9-HODE 200 nM 120 s
  9-HODE-induced TRPV1 sensitization in G2A-deficient DRG neurons: not in G2A-deficient mice; also recorded: absent
[1]; DRG neurons, lipid incubated 2 minutes before second capsaicin stimulus, 0 to 1000 nM
  sensitization of TRPV1 (Δratio of first and second capsaicin stimulus): dose-dependently sensitizes the TRPV1 channel; also recorded: concentration-dependently induced a sensitization of TRPV1
[1]; wildtype DRG neurons, lipid 200 nM 120 s, capsaicin 200 nM 30 s
  calcium flux of second vs first capsaicin stimulus (Δratio): increased calcium flux compared to the first stimulus
[2]
  sensitizing effects for TRPA1: no sensitizing effects
[3]; G2A-deficient mice
  mechanical pain thresholds after intraplantar 9-HODE: not in G2A-deficient mice
[3]; TRPV1-deficient mice
  mechanical paw withdrawal latencies after intraplantar 9-HODE: not in TRPV1-deficient mice
[3]; wild type mice, ipsilateral paw (TRPV1 study)
  mechanical paw withdrawal latencies after intraplantar 9-HODE: strong reduction of mechanical paw withdrawal latencies
[3]; wildtype mice, left hind paw (G2A study, 10 μM)
  mechanical pain thresholds after intraplantar 9-HODE: strong reduction of mechanical pain thresholds
[4]
  activation of the G2A receptor: can activate the G2A receptor
[5]
  intracellular calcium concentrations: caused calcium-release; also recorded: increased intracellular calcium concentrations
[6]
  calcium release (bioluminescence of aequorin): caused calcium release in a concentration-dependent manner
